pEC50: −log10 of the molar value.
Experiments:
[1] = AUC (0 to 24 hrs) in rat at 0.5 mg/kg, po by cassette assay; format: ADME, organism-based; set-up: time < 24 hr, dose 0.5 mg/kg, route oral; conditions: plasma
[2] = Cmax in dog at 0.2 mg/kg, po by cassette assay; format: ADME, organism-based, Canis lupus familiaris; set-up: dose 0.2 mg/kg, route oral; conditions: in vivo
Homo sapiens = organism: Homo sapiens; assay: Ratio of EC50 for human cloned beta-1 adrenergic receptor to EC50 for human cloned beta3 adrenergic receptor
[3] = Protein binding in Beagle dog serum at 32 ug/kg, iv; format: ADME, organism-based, Canis lupus familiaris; conditions: 0.032 mg/kg, read-out: PB (converted)
[4] = AUC (0 to 24 hrs) in dog at 0.2 mg/kg, po by cassette assay; format: ADME, organism-based, Canis lupus familiaris; set-up: time < 24 hr, dose 0.2 mg/kg, route oral; conditions: plasma
[5] = Cmax in rat at 0.5 mg/kg, po by cassette assay; format: ADME, organism-based; set-up: dose 0.5 mg/kg, route oral; conditions: in vivo
[6] = Terminal half life in monkey at 0.32 mg/kg, iv by cassette assay; format: ADME, organism-based, Macaca mulatta; set-up: dose 0.32 mg/kg, route intravenous; conditions: rhesus monkey, in vivo
[7] = Cmax in monkey at 0.32 mg/kg, po; format: ADME, organism-based, Macaca mulatta; set-up: dose 0.32 mg/kg, route oral; conditions: rhesus monkey, in vivo
[8] = Selectivity for human beta3 adrenergic receptor over dog beta3 adrenergic receptor
[9] = biological target: Beta-2 adrenergic receptor (Homo sapiens, UniProt P07550); assay: Agonist activity at human beta2 adrenergic receptor expressed in CHO cells assessed as cAMP accumulation; format: functional, cell-based
[10] = Terminal half life in rat at 0.50 mg/kg, iv by cassette assay; format: ADME, organism-based; set-up: dose 0.5 mg/kg, route intravenous; conditions: in vivo, 0.5 mg/kg
[11] = Total clearance in rat at 0.50 mg/kg, iv by cassette assay; format: ADME, organism-based; set-up: dose 0.5 mg/kg, route intravenous; conditions: in vivo, 0.5 mg/kg
[12] = Oral bioavailability in monkey at 0.32 mg/kg by cassette assay; format: ADME, organism-based, Macaca mulatta; conditions: rhesus monkey, in vivo
[13] = biological target: Beta-3 adrenergic receptor (Canis lupus familiaris, UniProt O02662); assay: Agonist activity at dog beta3 adrenergic receptor expressed in CHO cells assessed as cAMP accumulation; format: functional, cell-based
[14] = AUC (0 to 24 hrs) in monkey at 0.32 mg/kg, po; format: ADME, organism-based, Macaca mulatta; set-up: time < 24 hr, dose 0.32 mg/kg, route oral; conditions: rhesus monkey, plasma
[15] = Terminal half life in dog at 0.1 mg/kg, iv by cassette assay; format: ADME, organism-based, Canis lupus familiaris; set-up: dose 0.1 mg/kg, route intravenous; conditions: in vivo
[16] = Total clearance in dog at 0.1 mg/kg, iv by cassette assay; format: ADME, organism-based, Canis lupus familiaris; set-up: dose 0.1 mg/kg, route intravenous; conditions: in vivo
[17] = Oral bioavailability in dog at 0.1 mg/kg by cassette assay; format: ADME, organism-based, Canis lupus familiaris; conditions: in vivo
Canis familiaris [18] = assay: Ratio of AUC for drug to AUC for 4-((7S)-7-{[(2R)-2-(3-Chlorophenyl)-2-hydroxyethyl]amino}-5,6,7,8-tetrahydro-2-naphthalenyl)benzoic acid hydrochloride in dog at 0.1 or 0.20 mg/kg, po by cassette dosing assay; format: ADME, organism-based, Canis lupus familiaris; set-up: dose 0.2 mg/kg, route oral; conditions: in vivo, 0.2 mg/kg
Canis familiaris [19] = assay: Ratio of Cmax for drug to Cmax for 4-((7S)-7-{[(2R)-2-(3-Chlorophenyl)-2-hydroxyethyl]amino}-5,6,7,8-tetrahydro-2-naphthalenyl)benzoic acid hydrochloride in dog at 0.1 or 0.20 mg/kg, po by cassette dosing assay; format: ADME, organism-based, Canis lupus familiaris; set-up: dose 0.2 mg/kg, route oral; conditions: in vivo, 0.2 mg/kg
[20] = biological target: Beta-3 adrenergic receptor (Homo sapiens, UniProt P13945); assay: Agonist activity at human cloned beta3 adrenergic receptor expressed in CHO cells assessed as cAMP accumulation; format: functional, cell-based
[21] = Oral bioavailability in rat at 0.50 mg/kg by cassette assay; format: ADME, organism-based; conditions: in vivo, 0.5 mg/kg
Canis familiaris [22] = assay: Inhibition of carbachol-induced increase of intravesical pressure in Beagle dog OAB model at 32 ug/kg,; format: functional; conditions: Canis lupus familiaris
[23] = biological target: Beta-1 adrenergic receptor (Homo sapiens, UniProt P08588)
Description: Agonist activity at human cloned beta-1 adrenergic receptor expressed in CHO cells assessed as cAMP accumulation

[24] = Total clearance in monkey at 0.32 mg/kg, iv by cassette assay; format: ADME, organism-based, Macaca mulatta; set-up: dose 0.32 mg/kg, route intravenous; conditions: rhesus monkey, in vivo
Canis familiaris [25] = assay: Ratio of AUC for drug to AUC for 3-[((7S)-7-{[(2R)-2-(3-Chlorophenyl)-2-hydroxyethyl]amino}-5,6,7,8-tetrahydro-2-naphthalenyl)oxy]benzoic acid hydrochloride in dog at 0.1 or 0.20 mg/kg, po by cassette dosing assay; format: ADME, organism-based, Canis lupus familiaris; set-up: dose 0.2 mg/kg, route oral; conditions: in vivo, 0.2 mg/kg
[26] = Cmax in rat at 1.0 mg/kg, po by cassette assay; format: ADME, organism-based; set-up: dose 1 mg/kg, route oral; conditions: in vivo
[27] = Total clearance in rat at 0.51 mg/kg, iv by cassette assay; format: ADME, organism-based; set-up: dose 0.51 mg/kg, route intravenous; conditions: in vivo
[28] = Oral bioavailability in rat at 0.51 mg/kg by cassette assay; format: ADME, organism-based; conditions: in vivo
Canis familiaris [29] = assay: Ratio of Cmax for drug to Cmax for 3-[((7S)-7-{[(2R)-2-(3-Chlorophenyl)-2-hydroxyethyl]amino}-5,6,7,8-tetrahydro-2-naphthalenyl)oxy]benzoic acid hydrochloride in dog at 0.1 or 0.20 mg/kg, po by cassette dosing assay; format: ADME, organism-based, Canis lupus familiaris; set-up: dose 0.2 mg/kg, route oral; conditions: in vivo, 0.2 mg/kg
[30] = AUC (0 to 24 hrs) in rat at 1.0 mg/kg, po by cassette assay; format: ADME, organism-based; set-up: time < 24 hr, dose 1 mg/kg, route oral; conditions: plasma
[31] = AUC (0 to 24 hrs) in monkey at 1.0 mg/kg, po by cassette assay; format: ADME, organism-based, Macaca mulatta; set-up: time < 24 hr, dose 1 mg/kg, route oral; conditions: rhesus monkey, plasma
[32] = Cmax in monkey at 1.0 mg/kg, po by cassette assay; format: ADME, organism-based, Macaca mulatta; set-up: dose 1 mg/kg, route oral; conditions: rhesus monkey, in vivo
[33] = Terminal half life in rat at 0.51 mg/kg, iv by cassette assay; format: ADME, organism-based; set-up: dose 0.51 mg/kg, route intravenous; conditions: in vivo
[34] = Cmax in dog at 0.21 mg/kg, po by cassette assay; format: ADME, organism-based, Canis lupus familiaris; set-up: dose 0.21 mg/kg, route oral; conditions: in vivo
[35] = Cmax in rat at 0.52 mg/kg, po by cassette assay; format: ADME, organism-based; set-up: dose 0.52 mg/kg, route oral; conditions: in vivo
[36] = AUC (0 to 24 hrs) in rat at 0.52 mg/kg, po by cassette assay; format: ADME, organism-based; set-up: time < 24 hr, dose 0.52 mg/kg, route oral; conditions: plasma
[37] = AUC (0 to 24 hrs) in dog at 0.21 mg/kg, po by cassette assay; format: ADME, organism-based, Canis lupus familiaris; set-up: time < 24 hr, dose 0.21 mg/kg, route oral; conditions: plasma

Sequence of Beta-3 adrenergic receptor (Homo sapiens, UniProt P13945) (P13945 whole entry): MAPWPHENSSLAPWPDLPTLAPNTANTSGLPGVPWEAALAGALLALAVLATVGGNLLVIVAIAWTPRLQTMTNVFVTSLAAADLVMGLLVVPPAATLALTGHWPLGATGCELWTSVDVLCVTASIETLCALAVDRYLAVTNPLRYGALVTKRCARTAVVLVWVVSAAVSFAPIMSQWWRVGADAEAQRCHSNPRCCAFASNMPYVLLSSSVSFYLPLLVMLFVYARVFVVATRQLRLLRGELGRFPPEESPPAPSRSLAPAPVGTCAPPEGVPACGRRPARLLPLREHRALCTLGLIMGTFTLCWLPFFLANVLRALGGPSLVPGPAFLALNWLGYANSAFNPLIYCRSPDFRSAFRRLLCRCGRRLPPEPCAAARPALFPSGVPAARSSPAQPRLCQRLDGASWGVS
Sequence of Beta-1 adrenergic receptor (P08588 whole entry): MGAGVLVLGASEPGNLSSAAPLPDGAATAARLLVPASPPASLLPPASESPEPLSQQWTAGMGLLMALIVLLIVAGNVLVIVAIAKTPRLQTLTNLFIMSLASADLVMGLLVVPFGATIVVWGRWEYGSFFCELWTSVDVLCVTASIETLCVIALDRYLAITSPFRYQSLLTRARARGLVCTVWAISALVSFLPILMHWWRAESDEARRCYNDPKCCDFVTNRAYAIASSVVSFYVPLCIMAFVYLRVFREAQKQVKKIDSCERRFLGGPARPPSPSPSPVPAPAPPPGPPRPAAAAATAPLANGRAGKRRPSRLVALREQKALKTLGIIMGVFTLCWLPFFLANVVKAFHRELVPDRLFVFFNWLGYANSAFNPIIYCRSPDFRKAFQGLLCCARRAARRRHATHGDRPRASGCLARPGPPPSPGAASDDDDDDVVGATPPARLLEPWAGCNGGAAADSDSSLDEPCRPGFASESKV
Sequence of Beta-2 adrenergic receptor (P07550 whole entry): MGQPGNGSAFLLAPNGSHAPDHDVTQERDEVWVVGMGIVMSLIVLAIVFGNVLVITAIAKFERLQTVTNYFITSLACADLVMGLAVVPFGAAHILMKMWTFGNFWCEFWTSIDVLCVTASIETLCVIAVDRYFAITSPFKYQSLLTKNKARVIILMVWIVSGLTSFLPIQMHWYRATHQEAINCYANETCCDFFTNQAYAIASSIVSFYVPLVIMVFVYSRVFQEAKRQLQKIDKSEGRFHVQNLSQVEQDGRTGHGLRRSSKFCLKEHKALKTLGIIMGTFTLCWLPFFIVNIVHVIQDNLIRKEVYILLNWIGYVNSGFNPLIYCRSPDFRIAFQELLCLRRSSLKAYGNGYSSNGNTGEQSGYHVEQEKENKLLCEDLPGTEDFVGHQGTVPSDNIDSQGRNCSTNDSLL
Sequence of Beta-3 adrenergic receptor (Canis lupus familiaris, UniProt O02662) (O02662 whole entry): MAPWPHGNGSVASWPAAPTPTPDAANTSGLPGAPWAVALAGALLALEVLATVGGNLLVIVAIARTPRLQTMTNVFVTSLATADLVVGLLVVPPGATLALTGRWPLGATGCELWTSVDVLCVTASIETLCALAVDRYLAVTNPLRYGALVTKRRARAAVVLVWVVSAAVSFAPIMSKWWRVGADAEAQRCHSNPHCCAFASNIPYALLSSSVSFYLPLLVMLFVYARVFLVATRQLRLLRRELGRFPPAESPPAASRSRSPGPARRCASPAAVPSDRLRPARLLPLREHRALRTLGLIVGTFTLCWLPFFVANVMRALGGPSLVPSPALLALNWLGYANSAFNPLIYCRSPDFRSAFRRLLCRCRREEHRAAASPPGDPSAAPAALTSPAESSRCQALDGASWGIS

Cmax [2] [ng/mL]	Ratio EC50 (Homo sapiens)	fraction unbound [3]	AUC(0-t) at 24 h [4] [ng·h/mL]	half-life [6] [h]	Selectivity ratio [8]	pEC50 [9]	half-life [10] [h]	clearance [11] [mL/min/kg]	bioavailability [12] [%]	pEC50 [13]	half-life [15] [h]	clearance [16] [mL/min/kg]	bioavailability [17] [%]	pEC50 [20]	bioavailability [21] [%]	pEC50 [23]	clearance [24] [mL/min/kg]	Ratio AUC (Canis familiaris [25])	SMILES	inhibition in vivo at 0.032 mg/kg (Canis familiaris [22]) [%]	also measured
113	2410	0.03	1980	7.7	65.8	< 6.00	13.6	11.4	81.7	7.60	14.3	1.7	> 95	9.42	63.4	6.04	6.7	–	O=C(O)c1ccc(-c2ccc3c(c2)C[C@@H](NC[C@H](O)c2ccc(Cl)cc2)CC3)cc1	33	AUC(0-t) at 24 h [1]: 470 ng·h/mL; Cmax [5]: 65 ng/mL; Cmax [7]: 91.2 ng/mL; AUC(0-t) at 24 h [14]: 722 ng·h/mL; Ratio AUC (Canis familiaris [18]): 1.25; Ratio (Canis familiaris [19]): 0.71
64.4	> 277	0.1	860	8.2	12.8	< 6.00	–	–	28.8	7.34	5.9	3.1	76.8	8.44	–	< 6.00	15.7	0.48	COc1ccc(Oc2ccc3c(c2)C[C@@H](NC[C@H](O)c2ccc(Cl)nc2)CC3)cc1C(=O)O	57	Cmax [26]: 164 ng/mL; clearance [27]: 2.5 mL/min/kg; bioavailability [28]: 27.3%; Ratio (Canis familiaris [29]): 0.5; AUC(0-t) at 24 h [30]: 1940 ng·h/mL; AUC(0-t) at 24 h [31]: 313 ng·h/mL; Cmax [32]: 59 ng/mL; half-life [33]: 15.3 h
–	> 217	–	–	6.7	–	< 6.00	11.9	2	48	–	8.3	1.4	64.2	8.33	> 95	< 6.00	5.3	0.76	COc1ccc(Oc2ccc3c(c2)C[C@@H](NC[C@H](O)c2ccc(Cl)cc2)CC3)cc1C(=O)O	–	Cmax [34]: 103 ng/mL; Ratio (Canis familiaris [29]): 0.64; Cmax [35]: 367 ng/mL; AUC(0-t) at 24 h [31]: 1560 ng·h/mL; AUC(0-t) at 24 h [36]: 4580 ng·h/mL; Cmax [32]: 319 ng/mL; AUC(0-t) at 24 h [37]: 1530 ng·h/mL
